Among the test systems are CCRF-CEM leukemia; NCI-H522 lung; HS 578T breast; M14 melanoma; COLO 205 colon; SF-295 CNS; CAKI-1 renal; NCI-H23 lung; IGROV1 ovarian; EKVX NSCLC; SW-620 colon; K-562 leukemia; UO-31 renal; A498 renal; HOP-62 NSCLC; RXF 393 renal; HCT-116 colon; SK-OV-3 ovarian.
Common to all, as to test: NCI-60 cell line screen, 48 h

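Interpolation was linear, between the two tested concentrations surrounding the appropriate level; five concentrations were tested over 48 hours in 96-well plates. TGI: concentration producing complete growth inhibition.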

The text below walks through data of PubChem BioAssay (NCI).

Take `O=C(O)c1ccccc1/C=C1/Cc2ccc3c(c2C1=O)CCC3`: the TGI with CCRF-CEM leukemia was greater than 100 µM; in the test with NCI-H522 lung, greater than 100 µM; in the test with HS 578T breast, greater than 100 µM; in the test with M14 melanoma, greater than 100 µM; with COLO 205 colon, 36.3 µM; with SF-295 CNS it was greater than 100 µM. Moreover, the TGI with CAKI-1 renal is greater than 100 µM; with NCI-H23 lung, 96 µM; in the test with IGROV1 ovarian it was greater than 100 µM; with EKVX NSCLC it was greater than 100 µM; in the test with SW-620 colon, greater than 100 µM; in the test with K-562 leukemia, greater than 100 µM. For the same molecule, the TGI with UO-31 renal, in the test with A498 renal, in the test on HOP-62 NSCLC, with RXF 393 renal and in the test on HCT-116 colon was greater than 100 µM in each case.
`CCOP(=O)(Nc1ccc(-c2ccc(N)cc2)cc1)OCC`: the TGI in the test with NCI-H522 lung, with HS 578T breast, with M14 melanoma, in the test with COLO 205 colon, with SF-295 CNS and in the test with CAKI-1 renal was greater than 100 µM in each case. For the same molecule, the TGI in the test on NCI-H23 lung, in the test on IGROV1 ovarian, in the test with EKVX NSCLC, with K-562 leukemia, with UO-31 renal and with A498 renal was greater than 100 µM each time. Further, the TGI in the test on HOP-62 NSCLC is greater than 100 µM; with RXF 393 renal, 98.8 µM; in the test on HCT-116 colon it was greater than 100 µM; in the test on SK-OV-3 ovarian, greater than 100 µM.
In the case of `CCOc1cc(C2SCC(=O)N2c2ccc3c(c2)Oc2c(Cl)c4c(c(Cl)c2=N3)Oc2cc(N3C(=O)CSC3c3ccc(O)c(OCC)c3)ccc2N=4)ccc1O` (configuration not stated), the TGI in the test with NCI-H522 lung was greater than 100 µM; with HS 578T breast, greater than 100 µM; in the test on M14 melanoma, 63.8 µM; in the test with SF-295 CNS it was greater than 100 µM; with CAKI-1 renal, greater than 100 µM; with NCI-H23 lung, 47.6 µM. The TGI in the test with IGROV1 ovarian, in the test on EKVX NSCLC, in the test with SW-620 colon, with K-562 leukemia, with UO-31 renal and with A498 renal was greater than 100 µM each time. In addition, the TGI is greater than 100 µM with HOP-62 NSCLC, 58.9 µM in the test on RXF 393 renal and 41.4 µM in the test with HCT-116 colon.
Consider `O=C1NC(=O)C(C(c2ccc([N+](=O)[O-])cc2)C2C(=O)NC(=O)NC2=O)C(=O)N1`, for which the TGI with CCRF-CEM leukemia, in the test with NCI-H522 lung, with HS 578T breast, in the test on M14 melanoma, in the test with COLO 205 colon and with SF-295 CNS was greater than 100 µM in each case. Also, the TGI in the test with CAKI-1 renal, with NCI-H23 lung, in the test with IGROV1 ovarian, in the test on SW-620 colon, in the test with K-562 leukemia and in the test on UO-31 renal was greater than 100 µM in each case. Further, the TGI with A498 renal, with HOP-62 NSCLC, in the test on RXF 393 renal and with HCT-116 colon was greater than 100 µM throughout.
Regarding `Cc1ccc(N=C2OP(=O)(Nc3ccc(C)cc3)Oc3ccccc32)cc1` (configuration not stated), the TGI in the test on CCRF-CEM leukemia, with HS 578T breast, with M14 melanoma, in the test with COLO 205 colon, with SF-295 CNS and with CAKI-1 renal was greater than 100 µM throughout. Further, the TGI in the test with NCI-H23 lung, in the test on IGROV1 ovarian, in the test with EKVX NSCLC, with SW-620 colon, with K-562 leukemia and in the test on UO-31 renal was greater than 100 µM each time. Moreover, the TGI in the test on A498 renal, in the test with HOP-62 NSCLC, in the test on RXF 393 renal, with HCT-116 colon and in the test with SK-OV-3 ovarian was greater than 100 µM throughout.
As to `O=C(O)/C=C/c1ccc(OS(=O)(=O)O)cc1`, the TGI with NCI-H522 lung, in the test with HS 578T breast, with M14 melanoma, with COLO 205 colon, in the test with SF-295 CNS and with CAKI-1 renal was greater than 100 µM each time. Further, the TGI in the test with NCI-H23 lung, in the test with IGROV1 ovarian, in the test on EKVX NSCLC, with SW-620 colon, in the test on K-562 leukemia and in the test on UO-31 renal was greater than 100 µM each time. The TGI in the test with A498 renal, with HOP-62 NSCLC, with RXF 393 renal, in the test with HCT-116 colon and in the test on SK-OV-3 ovarian was greater than 100 µM throughout.
Consider `O=C1/C(=C/c2ccccc2)CCc2ccc([N+](=O)[O-])cc21`, for which the TGI with CCRF-CEM leukemia was greater than 100 µM; with HS 578T breast, greater than 100 µM; in the test with M14 melanoma, greater than 96.4 µM; with COLO 205 colon, greater than 100 µM; with SF-295 CNS it was greater than 100 µM; with CAKI-1 renal it was greater than 100 µM. Moreover, the TGI in the test with NCI-H23 lung, with IGROV1 ovarian, with EKVX NSCLC, in the test with SW-620 colon, in the test with K-562 leukemia and in the test on UO-31 renal was greater than 100 µM throughout. Further, the TGI in the test with A498 renal was greater than 100 µM; with HOP-62 NSCLC, greater than 100 µM; with RXF 393 renal, 77.7 µM; with HCT-116 colon it was greater than 100 µM; in the test with SK-OV-3 ovarian, greater than 100 µM.
With `CC(C)(C)OC(=O)NCCC1CNc2ccccc21` (configuration not stated), the TGI in the test on NCI-H522 lung, with HS 578T breast, in the test with M14 melanoma, with COLO 205 colon, in the test on SF-295 CNS and in the test with CAKI-1 renal was greater than 100 µM throughout. For the same molecule, the TGI with NCI-H23 lung, in the test with IGROV1 ovarian, in the test on EKVX NSCLC, in the test with SW-620 colon, in the test with K-562 leukemia and with UO-31 renal was greater than 100 µM throughout. Besides, the TGI with A498 renal, in the test on HOP-62 NSCLC, with RXF 393 renal, with HCT-116 colon and in the test on SK-OV-3 ovarian was greater than 100 µM each time.
Consider `COC(=O)[C@@H]1C[C@]2(Br)c3ccccc3N(S(=O)(=O)c3ccccc3)[C@@H]2N1C(=O)OC`, for which the TGI with CCRF-CEM leukemia, in the test on NCI-H522 lung, in the test with HS 578T breast, in the test with CAKI-1 renal, with NCI-H23 lung and in the test on IGROV1 ovarian was greater than 100 µM each time. The TGI with EKVX NSCLC, with SW-620 colon, in the test on K-562 leukemia, in the test with UO-31 renal, in the test on A498 renal and with HOP-62 NSCLC was greater than 100 µM throughout. Moreover, the TGI in the test on RXF 393 renal was 61.8 µM; in the test with HCT-116 colon, greater than 100 µM; in the test with SK-OV-3 ovarian, greater than 100 µM.
